Measurements as given in patent US6696081B2, “Carbohydrate based lipid compositions and supramolecular structures comprising same” (Duke University, priority 2000, dated 2004).
Where “and” joins values, the source holds several entries; their conditions need not be identical. Equal entries are not always repeated. Where two headings read alike, the source gives them in different places.

Assays:
[1] = Carboxyfluorescein leakage assay of carbohydrosomes; assay type: physicochemical
Excerpt: The following procedure is adapted from Weinstein et al. (Weinstein, et al., Self-Quenching of Carboxyfluorescein Fluorescence: Uses in Studying Liposome Stability and Liposome-Cell Interaction; Weinstein, J. N.; et al., Ed.; CRC Press, Inc.: Boca Raton, Fla., United States of Amenica 1984; Vol. 3, pp 183-204.) and was successfully used in DMPC control experiments. Immediately before use, the carbohydrate-based lipid DMRPC, was passed through a C-18 SEP PAK™ column using a solvent system of 10% MeOH/CH3CN. Both the cholesterol and DMRPC were dissolved in chloroform and mixed. The mixtures were dried by rotoevaporation in a 100 mL round bottom flask before being thoroughly dried by high vacuum. […] The size of the liposomes was determined using dynamic light scattering. […] The filtered liposomes were diluted into osmotically equivalent 20 mM PBS buffer at pH 7.4 and the fluorescence intensity was measured over time. […]
As discussed herein above, one of the most wide-spread uses of liposomes is as drug delivery vehicles in warm-blooded vertebrates, including humans. […] In this Example, release of the self-quenching dye 5(6)-carboxyfluorescein (encapsulated in 5 mg/mL) was monitored over time by preparing carboxyfluorescein-containing carbohydrosomes using the high-pressure extrusion method. […]

[2] = Modulated differential scanning calorimetry (MDSC) of hydrated lipid bilayers; assay type: physicochemical; settings: for enthalpy of transition / phase-transition temperature (Tm) of the bilayer: lipid hydrated in water, MDSC; for increase of Tm over the glycerol analog: DLRPC vs DLPC, DMRPC vs DMPC
Procedure: The phase-transition temperatures (Tm) of the bilayers formed by DLRPC, DMRPC and DARPC were determined by modulated differential scanning calorimetry (MDSC). […] For DARPC, the similarity in Tm was not entirely unexpected since tail—tail interactions contribute more to the Tm as the tail length increases. […] At the phase-transition temperature, the bilayer transformed from the gel-liquid crystalline phase in glycerol based phospholipids such as DLPC and DMPC. This endothermic process was observed as two discreet events. A small pre-transition peak, corresponding to the conversion from a lamellar gel (Lβ) phase to rippled gel (Pβ) phase, occurred below a much larger sharp main transition peak corresponding to conversion of the Pβ phase to the liquid crystalline Lα phase. The temperature at which the pre-transition existed as well as the enthalpy of the transition both changed as a function of tail length in a linear pattern. This presence of two well-defined phase transitions was not observed for the carbohydrate-based lipids.
Thermal Analysis of DLRPC 1-2 mgs of lipid were hermetically sealed with […] water in an aluminum pan. The modulation was set to ±1.00° C. every 40 seconds and the pan was equilibrated at −15° C. The temperature was increased at 0.5° C./min to 70° C. where the temperature was held for 2 minutes. The temperature was then reduced to −10° C. and held at this temperature for 2 minutes. This heating-cooling cycle was repeated two more times before the sample was held isothermal at −10° C. for 20 minutes. Integrating under the heat flow peak curve of the main peak provides the enthalpy of the transition. TA Instruments Universal Analysis computer program (available from TA Instruments of New Castle, Del., United States of America) was used to analyze the data. DLRPC has a Tm of 15.75° C. and an enthalpy of 3.3 kcal/mol.
The same modulated differential scanning calorimetry method used on DLRPC was employed to obtain thermotropic data on DMRPC.
The same modulated differential scanning calorimetry method used on DLRPC was employed to obtain thermotropic data on DARPC.

[3] = literature value, Marsh, CRC Handbook of Lipid Bilayers; cited from earlier work
[4] = 40 mol % cholesterol; McMullen et al.; cited from earlier work
[5] = system: PLA2 (naja naja venom); experiment: pH-stat phospholipase assay; assay type: biochemical; settings: for initial average rate of hydrolysis by PLA2: lipid as substrate, Triton X-100 40 mM, CaCl2 10 mM, 40° C., pH 8.0, PLA2 0.1 units/mL
Procedure: The pH-stat phospholipase assays were performed on a Metrohm 718 STAT Titrino pH-stat following a procedure described by Yuan et al. (Yuan, W.; Berman, R. J.; Gelb, M. H. J. Am. Chem. Soc. 1987, 109, 8071-8081; Deems, R. A.; Dennis, E. A. Methods Enzym 1981, 71, 703-710.) Before the assays were performed, the pH-stat was calibrated at pH 7 and pH 4. The NaOH (0.01 N) titrant was standardized by titration to pH 8.65 with a weighed amount of potassium hydrogen-phthalate in 40 mL of Dl water. The lipid was transferred to a 5 mL round bottom flask in methylene chloride/methanol (98/2) and the solvent was removed by rotoevaporation. High vacuum then removed trace amounts of remaining solvent. The lipid film was rehydrated with 2 mL of an aqueous solution containing TRITON X-100™ detergent (Sigma Chemical Company, St. Louis, Mo.) (40 mM) and CaCl2 (10 mM) and then sonicated briefly to solubilize the lipids.
Next, the solution was immersed in a temperature-controlled bath at 40° C. and stirred with a magnetic stir bar. A stream of argon was passed over the reaction mixture to prevent CO2 absorption. A microelectrode (Metrohm 6.0224.100 pH 1-11/0-60° C. Idrolyte) was inserted through the top of the reaction vessel along with the dosing tube from the pH-stat. The reaction mixture was adjusted to a pH of 8.2 by addition of NaOH. Next, 0.2 units of PLA2 (naja naja venom, Sigma Chemical Company, St. Louis, Mo.) (0.1 units/mL) was added to the reaction and the reaction started. The pH was allowed to drop to 8.0 and held at this value by addition of NaOH. At pH 8, the fatty acids were almost completely ionized; therefore, the amount of base added as a function of time indicates cleavage of the ester bond.
In this Example, enzymatic activity was recorded using a pH-stat, which maintains a specific pH by adding base during the enzymatic reaction. During these assays, DMPC was hydrolyzed with an initial average rate of 6.19 E-08 (moles NaOH/minute) (std dev 6.72E-10).
Next, whether DMRPC inhibits PLA2 activity was investigated. Using DMPC (5 mM) as a substrate, DMRPC was added to the reaction mixture at varying concentrations. […] With a change in structure, different carbohydrate-based phospholipids could inhibit PLA2.

[6] = glycerol analog, Van Dijck et al.; cited from earlier work
[7] = Cholesterol interactions: MDSC of lipid/cholesterol mixtures; assay type: physicochemical
Procedure: The enthalpy was zero at 50 mol % cholesterol for DMRPC. For the glycerol-based phospholipid, cholesterol packed in the bilayer membrane with its hydroxyl group at the same level as the acyl groups. In this structural arrangement, cholesterol primarily interacted with the tails and not the head group or backbone.
For DMRPC, a slight decrease in phase-transition temperature was observed. The phase-transition temperature decreased from ˜30° C. at 0 mol % cholesterol to ˜27° C. at 35 mol % cholesterol. […] The carbohydrate backbone of DMRPC likely altered the effective hydrophobic length of the bilayer area (this DMRPC is similar to longer tail systems). There was a slight destabilization of the bilayer membrane with the incorporation of cholesterol as indicated by the decrease in phase-transition temperature. […] X-ray data on 20 mol % cholesterol/DMRPC confirmed the Lc state.

[8] = MDSC thermal analysis of DLRPA as a function of pH; assay type: physicochemical
Excerpt: The same modulated differential scanning calorimetry method used on DLRPC was employed to obtain thermotropic data on DLRPA. Instead of using water to hydrate the samples however, the following 5 buffers were utilized: a) 0.1 M KCl/HCl at pH 1.5, b) 0.1 M KCl/HCl at pH 4.14, c) 0.1 M Tris-HCl at pH 7.4, d) 0.01 M sodium borate at pH 8.44, and e) 0.01 M sodium borate at pH 9.5.
The effect of pH on the phase-transition temperature of DLRPA supramolecular structures was probed using modulated differential scanning calorimetry. Experiments were performed in the following 5 solutions: a) 0.1 M KCl/HCl at pH 1.5, b) 0.1 M KCl/HCl at pH 4.14, c) 0.1 M Tris-HCl at pH 7.4, d) 0.01 M sodium borate at pH 8.44, and e) 0.01 M sodium borate at pH 9.5.

For CCCCCCCCCCCCCC(=O)OC[C@H](COP(=O)([O-])OCC[N+](C)(C)C)OC(=O)CCCCCCCCCCCCC [DMPC, reference compound], the “release of carboxyfluorescein in the first 20 minutes” value ([1]; vesicles in 20 mM PBS pH 7.4) was “release dye over the first 20 minutes”, the enthalpy of transition [2] was 5.6 ± 1.1 kcal/mol and the “phase-transition temperature (Tm) of the bilayer” value (shortened to “phase-transition temperature (Tm)”) [2] was 23.5 °C. The “enthalpy of transition (literature)” value [3] was 5.9 ± 0.6 kcal/mol, the “increase in phase-transition temperature” value [4] was at most 17 °C and the “initial average rate of hydrolysis by PLA2” value [5] was 6.19 E-08 moles NaOH/minute and 6.19 E-08 (std. dev. 6.72E-10) moles NaOH/minute.

For CCCCCCCCCCCC(=O)OC[C@H](COP(=O)(O)O)OC(=O)CCCCCCCCCCC [DLPA, dilauroyl phosphatidic acid], the “pH at which the first proton of the phosphate is lost” value [6] is given as 3-4 and the “pH at which the second proton of the phosphate is lost” value [6] is given as about 7.

In the case of CCCCCCCCCCCCCCCCCCCC(=O)OC[C@H](COP(=O)([O-])OCC[N+](C)(C)C)OC(=O)CCCCCCCCCCCCCCCCCCC [DAPC, reference compound], the enthalpy of transition [2] is given as 12.6 ± 0.7 kcal/mol, the “phase-transition temperature (Tm)” value [2] is given as 66 °C and the “enthalpy of transition (literature)” value [3] is given as 11.93 kcal/mol.

In the case of “methyl-2,3-di-O-myristoyl-b-D-ribo-5-phosphocholine [DMRPC]”, the “vesicle survival of SEPHADEX G-50 column separation” value ([1]; vesicles of 100% DMRPC (0% cholesterol)) is reported as “too fragile to survive”, the “increase of Tm over the glycerol analog” value [2] is reported as “approximately 6 °C” and the enthalpy of transition [2] is reported as 6.1 ± 1.0 kcal/mol and 6.1 kcal/mol. The “phase-transition temperature (Tm)” value [2] was 29.6±0.3 °C and 29 °C and 29.6 °C, the phase-transition temperature ([7]; 0 mol % cholesterol) was about 30 °C and the phase-transition temperature ([7]; 35 mol % cholesterol) was about 27 °C. The enthalpy of transition ([7]; 50 mol % cholesterol) was “zero”, the “hydrolysis rate of DMPC with DMRPC added” value ([5]; DMPC (5 mM) as substrate, DMRPC added to the reaction mixture) was 6.32E-08 (std. dev. 1.36E-08) moles NaOH/minute and the “inhibition of PLA2 activity” value ([5]; DMPC (5 mM) as substrate, as much as 4 mM DMRPC added) was “did not yield a significant hydrolysis rate decrease”. For the same compound, the “initial average rate of hydrolysis by PLA2” value [5] was “not hydrolyzed”.

In the case of “bis-(2,3-lauroyl)-1-methoxy-5-ribo-phosphatidic acid [DLRPA]”, the “pH at which the first proton of the phosphate is lost” value ([8]; from Tm versus pH profile) is reported as 3-4, the “pH at which the second proton of the phosphate is lost” value ([8]; from Tm versus pH profile) is reported as about 8.5 and the Tm ([8]; pH 1.5, 0.1 M KCl/HCl) is reported as about 45 °C. The Tm ([8]; pH 4.14, 0.1 M KCl/HCl) was 34 °C, the Tm ([8]; pH 7.4, 0.1 M Tris-HCl) was 31 °C and the Tm ([8]; pH 8.4, 0.01 M sodium borate) was 29 °C. The Tm ([8]; pH 9.5, 0.01 M sodium borate) was about 18 °C.

With CCCCCCCCCCCC(=O)O[C@H]1[C@H](OC)O[C@H](COP(=O)([O-])OCC[N+](C)(C)C)[C@H]1OC(=O)CCCCCCCCCCC [DLRPC, Methyl-2,3-di-O-lauroyl-b-D-ribo-5-phosphocholine] the “increase of Tm over the glycerol analog” value [2] was 16 °C, the enthalpy of transition [2] was 3.3 ± 0.3 kcal/mol and 3.3 kcal/mol and the “phase-transition temperature (Tm)” value [2] was 15.75±0.05 °C and 15.75 °C.

In the case of CCCCCCCCCCCC(=O)OC[C@H](COP(=O)([O-])OCC[N+](C)(C)C)OC(=O)CCCCCCCCCCC [DLPC, 1,2-dilauroyl-sn-glycero-3-phosphocholine, reference compound], the enthalpy of transition [2] is reported as 1.5 kcal/mol and the “phase-transition temperature (Tm)” value [2] is reported as −1.1±0.8 °C.

In the case of “methyl-2,3-di-O-arachadonyl-b-D-ribo-5-phosphocholine [DARPC]”, the enthalpy of transition [2] is reported as 5.1 ± 1.5 kcal/mol and 5.1 kcal/mol and the “phase-transition temperature (Tm)” value [2] is reported as 63.5±0.6 °C and 63.5 °C.
